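Briefly, cells in 96-well plates were exposed to five compound concentrations for 48 h, and endpoints were estimated by linear interpolation. Here, GI50 denotes the concentration required for 50% inhibition of growth. TGI is the concentration that stops growth completely.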
How the values were obtained:
Test in all cases: NCI tumour cell line growth inhibition, 48 h
HS 578T breast = test system: HS 578T breast
UACC-62 melanoma = test system: UACC-62 melanoma
LOX IMVI melanoma = test system: LOX IMVI melanoma
MCF7 breast = test system: MCF7 breast
OVCAR-4 ovarian = test system: OVCAR-4 ovarian
TK-10 renal = test system: TK-10 renal
PC-3 prostate = test system: PC-3 prostate
NCI-H460 lung = test system: NCI-H460 lung
NCI-H23 lung = test system: NCI-H23 lung
A549 NSCLC = test system: A549 NSCLC
KM12 colon = test system: KM12 colon
RPMI-8226 leukemia = test system: RPMI-8226 leukemia
HOP-92 NSCLC = test system: HOP-92 NSCLC
OVCAR-5 ovarian = test system: OVCAR-5 ovarian
DU-145 prostate = test system: DU-145 prostate
MDA-MB-231 breast = test system: MDA-MB-231 breast
SNB-19 CNS = test system: SNB-19 CNS
786-0 renal = test system: 786-0 renal
CAKI-1 renal = test system: CAKI-1 renal
HT29 colon = test system: HT29 colon
NCI-H226 lung = test system: NCI-H226 lung
U251 CNS = test system: U251 CNS
HCC-2998 colon = test system: HCC-2998 colon
SF-539 CNS = test system: SF-539 CNS
IGROV1 ovarian = test system: IGROV1 ovarian
BT-549 breast = test system: BT-549 breast
SK-MEL-2 melanoma = test system: SK-MEL-2 melanoma
M14 melanoma = test system: M14 melanoma
SN12C renal = test system: SN12C renal
SK-MEL-28 melanoma = test system: SK-MEL-28 melanoma
SW-620 colon = test system: SW-620 colon
SK-OV-3 ovarian = test system: SK-OV-3 ovarian
UACC-257 melanoma = test system: UACC-257 melanoma
UO-31 renal = test system: UO-31 renal
RXF 393 renal = test system: RXF 393 renal
NCI-H522 lung = test system: NCI-H522 lung
SF-295 CNS = test system: SF-295 CNS
COLO 205 colon = test system: COLO 205 colon
NCI/ADR-RES ovarian = test system: NCI/ADR-RES ovarian
ACHN renal = test system: ACHN renal
HOP-62 NSCLC = test system: HOP-62 NSCLC
HCT-15 colon = test system: HCT-15 colon
T-47D breast = test system: T-47D breast
SR leukemia = test system: SR leukemia
HCT-116 colon = test system: HCT-116 colon
CCRF-CEM leukemia = test system: CCRF-CEM leukemia
MDA-MB-435 = test system: MDA-MB-435
MALME-3M melanoma = test system: MALME-3M melanoma
SK-MEL-5 melanoma = test system: SK-MEL-5 melanoma
A498 renal = test system: A498 renal
SNB-75 CNS = test system: SNB-75 CNS
HL-60(TB) leukemia = test system: HL-60(TB) leukemia
EKVX NSCLC = test system: EKVX NSCLC
OVCAR-8 ovarian = test system: OVCAR-8 ovarian
K-562 leukemia = test system: K-562 leukemia
MOLT-4 leukemia = test system: MOLT-4 leukemia
SF-268 CNS = test system: SF-268 CNS
OVCAR-3 ovarian = test system: OVCAR-3 ovarian

Compound: CC[C@@H](C(=O)[C@H](C)[C@H](O)[C@@H](C)[C@H]1O[C@H]([C@@H](CC)C(=O)O)CC[C@H]1C)C1O[C@]2(C=C[C@@H](O)[C@]3(CC[C@@](C)([C@H]4CC[C@](O)(CC)[C@H](C)O4)O3)O2)[C@H](C)C[C@@H]1C (stereo not given in full)
- GI50 (HS 578T breast): 0.239 µM
- TGI (HS 578T breast): 18.4 µM
- GI50 (UACC-62 melanoma): 1.05 µM
- TGI (UACC-62 melanoma): 2.28 µM
- GI50 (LOX IMVI melanoma): 0.706 µM
- TGI (LOX IMVI melanoma): 6.56 µM
- GI50 (MCF7 breast): 0.148 µM
- TGI (MCF7 breast): 11.9 µM
- GI50 (OVCAR-4 ovarian): 0.821 µM
- TGI (OVCAR-4 ovarian): 44.8 µM
- GI50 (TK-10 renal): 1.68 µM
- TGI (TK-10 renal): 83.1 µM
- GI50 (PC-3 prostate): 0.0692 µM
- TGI (PC-3 prostate): 49 µM
- GI50 (NCI-H460 lung): 0.4 µM
- TGI (NCI-H460 lung): 10.3 µM
- GI50 (NCI-H23 lung): 0.296 µM
- TGI (NCI-H23 lung): 7.24 µM
- GI50 (A549 NSCLC): 0.267 µM
- TGI (A549 NSCLC): 21.6 µM
- GI50 (KM12 colon): 0.723 µM
- TGI (KM12 colon): 12.9 µM
- GI50 (RPMI-8226 leukemia): 0.171 µM
- TGI (RPMI-8226 leukemia): 3.07 µM
- GI50 (HOP-92 NSCLC): 0.69 µM
- TGI (HOP-92 NSCLC): 5.78 µM
- GI50 (OVCAR-5 ovarian): 1.07 µM
- TGI (OVCAR-5 ovarian): 69.2 µM
- GI50 (DU-145 prostate): 1.06 µM
- TGI (DU-145 prostate): 29.3 µM
- GI50 (MDA-MB-231 breast): 0.586 µM
- TGI (MDA-MB-231 breast): 6.71 µM
- GI50 (SNB-19 CNS): 0.204 µM
- TGI (SNB-19 CNS): 4.25 µM
- GI50 (786-0 renal): 1.26 µM
- TGI (786-0 renal): 21.2 µM
- GI50 (CAKI-1 renal): 0.637 µM
- TGI (CAKI-1 renal): 13.9 µM
- GI50 (HT29 colon): 0.357 µM
- TGI (HT29 colon): 30.2 µM
- GI50 (NCI-H226 lung): 0.598 µM
- TGI (NCI-H226 lung): 5.83 µM
- GI50 (U251 CNS): 0.113 µM
- TGI (U251 CNS): 11.5 µM
- GI50 (HCC-2998 colon): 0.178 µM
- TGI (HCC-2998 colon): 11.9 µM
- GI50 (SF-539 CNS): 0.328 µM
- TGI (SF-539 CNS): 4.05 µM
- GI50 (IGROV1 ovarian): 2.07 µM
- TGI (IGROV1 ovarian): > 100 µM
- GI50 (BT-549 breast): 0.239 µM
- TGI (BT-549 breast): 8.63 µM
- GI50 (SK-MEL-2 melanoma): 1.27 µM
- TGI (SK-MEL-2 melanoma): 4.5 µM
- GI50 (M14 melanoma): 1.13 µM
- TGI (M14 melanoma): 2.89 µM
- GI50 (SN12C renal): 0.159 µM
- TGI (SN12C renal): 16.4 µM
- GI50 (SK-MEL-28 melanoma): 0.84 µM
- TGI (SK-MEL-28 melanoma): 2.09 µM
- GI50 (SW-620 colon): 0.966 µM
- TGI (SW-620 colon): 10.7 µM
- GI50 (SK-OV-3 ovarian): 4.1 µM
- TGI (SK-OV-3 ovarian): 51.1 µM
- GI50 (UACC-257 melanoma): 0.23 µM
- TGI (UACC-257 melanoma): 6.98 µM
- GI50 (UO-31 renal): 1.42 µM
- TGI (UO-31 renal): 23.9 µM
- GI50 (RXF 393 renal): 0.0621 µM
- TGI (RXF 393 renal): 1.47 µM
- GI50 (NCI-H522 lung): 0.0961 µM
- TGI (NCI-H522 lung): 2.51 µM
- GI50 (SF-295 CNS): 0.474 µM
- TGI (SF-295 CNS): 5.54 µM
- GI50 (COLO 205 colon): 0.203 µM
- TGI (COLO 205 colon): 4.68 µM
- GI50 (NCI/ADR-RES ovarian): 0.562 µM
- TGI (NCI/ADR-RES ovarian): > 68.2 µM
- GI50 (ACHN renal): 0.77 µM
- TGI (ACHN renal): 40.2 µM
- GI50 (HOP-62 NSCLC): 0.532 µM
- TGI (HOP-62 NSCLC): 21.6 µM
- GI50 (HCT-15 colon): 0.639 µM
- TGI (HCT-15 colon): 26.5 µM
- GI50 (T-47D breast): 0.125 µM
- TGI (T-47D breast): 16.7 µM
- GI50 (SR leukemia): 0.0827 µM
- TGI (SR leukemia): 5.73 µM
- GI50 (HCT-116 colon): 0.722 µM
- TGI (HCT-116 colon): 35.7 µM
- GI50 (CCRF-CEM leukemia): 0.283 µM
- TGI (CCRF-CEM leukemia): 12.3 µM
- GI50 (MDA-MB-435): 1.08 µM
- TGI (MDA-MB-435): 2.56 µM
- GI50 (MALME-3M melanoma): 0.241 µM
- TGI (MALME-3M melanoma): 1.35 µM
- GI50 (SK-MEL-5 melanoma): 0.102 µM
- TGI (SK-MEL-5 melanoma): 0.274 µM
- GI50 (A498 renal): 0.044 µM
- TGI (A498 renal): 0.48 µM
- GI50 (SNB-75 CNS): 0.777 µM
- TGI (SNB-75 CNS): 4.63 µM
- GI50 (HL-60(TB) leukemia): 0.06 µM
- TGI (HL-60(TB) leukemia): 0.506 µM
- GI50 (EKVX NSCLC): 0.362 µM
- TGI (EKVX NSCLC): 17.5 µM
- GI50 (OVCAR-8 ovarian): 1.6 µM
- TGI (OVCAR-8 ovarian): > 100 µM
- GI50 (K-562 leukemia): 0.223 µM
- TGI (K-562 leukemia): 7.06 µM
- GI50 (MOLT-4 leukemia): 1.26 µM
- TGI (MOLT-4 leukemia): 4.75 µM
- GI50 (SF-268 CNS): 1.14 µM
- TGI (SF-268 CNS): 16.2 µM
- GI50 (OVCAR-3 ovarian): 0.0842 µM
- TGI (OVCAR-3 ovarian): 18.8 µM

Compound: CN1C(=O)C(C(N)=O)C2CC1(C)Oc1ccccc12 (stereo not given)
- TGI (HS 578T breast): > 100 µM
- TGI (UACC-62 melanoma): > 100 µM
- TGI (LOX IMVI melanoma): > 100 µM
- TGI (MCF7 breast): > 100 µM
- TGI (OVCAR-4 ovarian): > 100 µM
- TGI (PC-3 prostate): > 100 µM
- TGI (NCI-H460 lung): > 100 µM
- TGI (NCI-H23 lung): > 100 µM
- TGI (A549 NSCLC): > 100 µM
- TGI (KM12 colon): > 100 µM
- TGI (RPMI-8226 leukemia): > 100 µM
- TGI (HOP-92 NSCLC): > 100 µM
- TGI (OVCAR-5 ovarian): > 100 µM
- TGI (DU-145 prostate): > 100 µM
- TGI (MDA-MB-231 breast): > 100 µM
- TGI (SNB-19 CNS): > 100 µM
- TGI (786-0 renal): > 100 µM
- TGI (CAKI-1 renal): > 100 µM
- TGI (HT29 colon): > 100 µM
- TGI (NCI-H226 lung): > 100 µM
- TGI (U251 CNS): > 100 µM
- TGI (HCC-2998 colon): > 100 µM
- TGI (IGROV1 ovarian): > 100 µM
- TGI (BT-549 breast): > 100 µM
- TGI (SK-MEL-2 melanoma): > 100 µM
- TGI (M14 melanoma): > 100 µM
- TGI (SN12C renal): > 100 µM
- TGI (SK-MEL-28 melanoma): > 100 µM
- TGI (SW-620 colon): > 100 µM
- TGI (SK-OV-3 ovarian): > 100 µM
- TGI (UACC-257 melanoma): > 100 µM
- TGI (RXF 393 renal): > 100 µM
- TGI (NCI-H522 lung): > 100 µM
- TGI (COLO 205 colon): > 100 µM
- TGI (NCI/ADR-RES ovarian): > 100 µM
- TGI (ACHN renal): > 100 µM
- TGI (HOP-62 NSCLC): > 100 µM
- TGI (HCT-15 colon): > 100 µM
- TGI (T-47D breast): > 100 µM
- TGI (SR leukemia): > 100 µM
- TGI (HCT-116 colon): > 100 µM
- TGI (CCRF-CEM leukemia): > 100 µM
- TGI (MDA-MB-435): > 100 µM
- TGI (MALME-3M melanoma): > 100 µM
- TGI (SK-MEL-5 melanoma): > 100 µM
- TGI (A498 renal): > 100 µM
- TGI (SNB-75 CNS): > 100 µM
- TGI (HL-60(TB) leukemia): > 100 µM
- TGI (EKVX NSCLC): > 100 µM
- TGI (OVCAR-8 ovarian): > 100 µM
- TGI (K-562 leukemia): > 100 µM
- TGI (MOLT-4 leukemia): > 100 µM
- TGI (SF-268 CNS): > 100 µM
- TGI (OVCAR-3 ovarian): > 100 µM

From PubChem BioAssay (NCI)
